Source: US10858360B2, “Tricyclic gyrase inhibitors” (priority 2011, dated 2020)
Values after ≈ are worked out from the molar mass of the structure shown.

What was measured:
S. aureus ATCC 13709 = experiment: MIC, S. aureus ATCC 13709 (Alamar Blue broth microdilution); assay type: cell-based; conditions: Alamar Blue read after overnight incubation at 35° C.; for MIC: Staphylococcus aureus, ATCC13709, S. aureus; for MIC Sa: S. aureus
E. coli ATCC 25922 = experiment: MIC, E. coli ATCC 25922; assay type: cell-based; conditions: Alamar Blue read after overnight incubation at 35° C.; for MIC: Escherichia coli, ATCC25922, E. coli; for MIC Ec: E. coli

| SMILES | MIC (S. aureus ATCC 13709) | MIC (E. coli ATCC 25922) | MIC Sa (S. aureus ATCC 13709) | MIC Ec (E. coli ATCC 25922) |
| --- | --- | --- | --- | --- |
| CNc1cc(F)cc2c1[nH]c1nc(Oc3cncnc3)nc(N3CC(N)C4(CC4)C3)c12 (centres unmarked) [4.002] | ≤ 0.5 µg/mL | ≤ 0.5 µg/mL | – | – |
| CNc1cc(F)cc2c1[nH]c1nc(Oc3cnc(C)nc3)nc(N3CC(CN)C3)c12 [4.143] | – | – | ≤0.5 µg/mL | 2 µg/mL (≈ 4.9 µM) |
| CNc1cccc2c1[nH]c1nc(Oc3cncnc3)nc(N3CC(N)C(O)C3)c12 (centres unmarked) [3.8] | 16 µg/mL (≈ 40.8 µM) | > 64 µg/mL | – | – |
| CNc1cc(F)cc2c1[nH]c1nc(Oc3cnc(N4CC(O)C4)nc3)nc(N3CC4C(N)C4C3)c12 (centres unmarked) [4.298] | ≤ 0.5 µg/mL | 2 µg/mL (≈ 4.19 µM) | – | – |
| CNc1cccc2c1[nH]c1nc(Oc3cnc(C)nc3)nc(N3CC[C@@H](N)C3)c12 [3.5] | 0.25 µg/mL (≈ 0.64 µM) | ≤ 0.5 µg/mL | – | – |
| CNc1cc(F)cc2c1[nH]c1nc(Oc3cnc(C)nc3)nc(N3CC4CCC(N)CC4C3)c12 (centres unmarked) [4.092] | – | – | ≤0.5 µg/mL | 2 µg/mL (≈ 4.32 µM) |
| CNc1cc(F)cc2c1[nH]c1nc(Oc3cncc(SC)c3)nc(N3CC4C[C@@H](N)C4C3)c12 (some centres unmarked) [4.355] | ≤ 0.5 µg/mL | ≤ 0.5 µg/mL | – | – |
| CNc1cc(F)cc2c1[nH]c1nc(Oc3cnc(Cl)nc3)nc(N3CC4C(N)CC4(C)C3)c12 (centres unmarked) [4.379] | – | – | ≤0.5 µg/mL | ≤0.5 µg/mL |
| CNc1cc(F)c(F)c2c1[nH]c1nc(Oc3cnc4c(c3)ncn4C3CC3)nc(N3C[C@H]4C[C@@H]3C[C@H]4N)c12 [5.15] | ≤ 0.5 µg/mL | 1 µg/mL (≈ 1.93 µM) | – | – |
| CNc1cc(F)cc2c1[nH]c1nc(Oc3cnc(N4CCOCC4)nc3)nc(N3CC(N)C4(CC4)C3)c12 (centres unmarked) [4.213] | – | – | ≤0.5 µg/mL | 1 µg/mL (≈ 1.98 µM) |
| CNc1cc(F)cc2c1[nH]c1nc(Oc3ccc4c(c3)C(=O)NC4)nc(N3CC4CCNC4C3)c12 (centres unmarked) [4.269] | – | – | ≤0.5 µg/mL | 4 µg/mL (≈ 8.45 µM) |
| CNc1cc(F)cc2c1[nH]c1nc(Oc3cnc4cccnc4c3)nc(N3CC4(CC4N)C3)c12 (centres unmarked) [4.042] | – | – | ≤0.5 µg/mL | ≤0.5 µg/mL |
| CNc1cc(F)cc2c1[nH]c1nc(Oc3cnc(-c4nccn4C)nc3)nc(N3C[C@H](N)C4(CC4)C3)c12 [4.399] | ≤ 0.5 µg/mL | 2 µg/mL (≈ 4 µM) | – | – |
| CNc1cc(F)cc2c1[nH]c1nc(Oc3cnc(C4CCC4)nc3)nc(N3CC4C(N)C4C3)c12 (centres unmarked) [4.286] | ≤ 0.5 µg/mL | ≤ 0.5 µg/mL | – | – |
| CNc1cc(F)cc2c1[nH]c1nc(Oc3cnc4c(c3)C(=O)N(C)C4C)nc(N3CC4CC3C[C@@H]4N)c12 (some centres unmarked) [4.398] | ≤ 0.5 µg/mL | ≤ 0.5 µg/mL | – | – |
| CNc1cccc2c1[nH]c1nc(Oc3cncnc3)nc(N3C[C@H](NCC4CC4)C4(CC4)C3)c12 [3.12] | 1 µg/mL (≈ 2.19 µM) | 8 µg/mL (≈ 17.5 µM) | – | – |
| CNc1cc(F)cc2c1[nH]c1nc(Oc3cnc(N(C)C)nc3)nc(N3C[C@H](N)C4(CC4)C3)c12 [4.209] | ≤ 0.5 µg/mL | ≤ 0.5 µg/mL | – | – |
| CNc1cc(F)c(F)c2c1[nH]c1nc(Oc3cnc(C)nc3)nc(N3CC4(CCC4N)C3)c12 (centres unmarked) [5.1] | – | – | ≤0.5 µg/mL | ≤0.5 µg/mL |
| Cc1ncc(Oc2nc(N3C[C@H](N)C4(CC4)C3)c3c(n2)[nH]c2c(N(C)C(=O)CN)cc(F)cc23)cn1 [4.426] | 8 µg/mL (≈ 16.3 µM) | > 16 µg/mL | – | – |
| CNc1cc(F)cc2c1[nH]c1nc(Oc3ccc4c(c3)C(=O)NC43CC3)nc(N3CC4(CCC4N)C3)c12 (centres unmarked) [4.380] | – | – | 4 µg/mL (≈ 8.01 µM) | 16 µg/mL (≈ 32 µM) |
| CNc1cc(F)cc2c1[nH]c1nc(Oc3cncc(OC)c3)nc(N3CC4C(N)C4C3)c12 (centres unmarked) [4.164] | ≤ 0.5 µg/mL | 1 µg/mL (≈ 2.3 µM) | – | – |
| CNc1cc(F)cc2c1[nH]c1nc(Oc3cnc4c(c3)OC=CO4)nc(N3C[C@H](N)C4(CC4)C3)c12 [4.305] | – | – | ≤0.5 µg/mL | 1 µg/mL (≈ 2.1 µM) |
| CNc1cc(F)cc2c1[nH]c1nc(Oc3cnc(C)nc3)nc(N3CC4CCC(N)C4C3)c12 (centres unmarked) [4.075] | – | – | ≤0.5 µg/mL | ≤0.5 µg/mL |

| SMILES | MIC (S. aureus ATCC 13709) | MIC (E. coli ATCC 25922) | MIC Sa (S. aureus ATCC 13709) | MIC Ec (E. coli ATCC 25922) |
| --- | --- | --- | --- | --- |
| CNc1cccc2c1[nH]c1nc(Oc3cnc(N)nc3)nc(Oc3cnc(N)nc3)c12 [3.53] | 8 µg/mL (≈ 19.2 µM) | > 64 µg/mL | – | – |
| CNc1cccc2c1[nH]c1nc(Oc3cncnc3)nc(N3C[C@@H]4CNC[C@H]4C3)c12 [3.61] | 4 µg/mL (≈ 9.94 µM) | 16 µg/mL (≈ 39.8 µM) | – | – |
| CNc1cc(F)cc2c1[nH]c1nc(Oc3cnc(N)nc3)nc(N3CC4C(CN)C4C3)c12 (centres unmarked) [4.188] | ≤ 0.5 µg/mL | 8 µg/mL (≈ 18.4 µM) | – | – |
| CNc1cccc2c1[nH]c1nc(Sc3cnc4ccc[n+]([O-])c4c3)nc(N3CC(CNC(=O)c4cn(C)nc4C(F)(F)F)C3)c12 [1.21] | ≤ 0.5 µg/mL | > 64 µg/mL | – | – |
| CCc1ncc(Oc2nc(N3CC4CC4(CN)C3)c3c(n2)[nH]c2c(NC)cc(F)cc23)cn1 (centres unmarked) [4.261] | ≤ 0.5 µg/mL | 1 µg/mL (≈ 2.23 µM) | – | – |
| CNc1cc(F)cc2c1[nH]c1nc(Oc3ccc4nc[nH]c(=O)c4c3)nc(N3CC4C(N)C4C3)c12 (centres unmarked) [4.231] | – | – | ≤0.5 µg/mL | 2 µg/mL (≈ 4.23 µM) |
| CNc1cc(F)cc2c1[nH]c1nc(Oc3cnc(C)nc3)nc(-c3cncc(F)c3)c12 [4.417] | ≤ 0.5 µg/mL | 1 µg/mL (≈ 2.38 µM) | – | – |
| CNc1ncnc2c1[nH]c1nc(Oc3cncnc3)nc(Oc3cncnc3)c12 [7.10] | > 64 µg/mL | > 64 µg/mL | – | – |
| CNc1cc(F)cc2c1[nH]c1nc(Oc3cnc(N(C)C)nc3)nc(N3CC4C(N)C4C3)c12 (centres unmarked) [4.208] | ≤ 0.5 µg/mL | ≤ 0.5 µg/mL | – | – |
| CNc1cc(F)cc2c1[nH]c1nc(Oc3cnc(NC4CC4)nc3)nc(N3CC4C(N)C4C3)c12 (centres unmarked) [4.223] | ≤ 0.5 µg/mL | ≤ 0.5 µg/mL | – | – |
| CNc1cc(F)cc2c1[nH]c1nc(Oc3cnc(C)nc3)nc(N3CC(N)C(C(=O)NCC(C)O)C3)c12 (centres unmarked) [4.439] | 8 µg/mL (≈ 15.7 µM) | > 16 µg/mL | – | – |
| CNc1cccc2c1[nH]c1nc(Oc3cncnc3)nc(N3C/C(=N\OC)[C@@H](N)C3)c12 [3.62] | ≤ 0.5 µg/mL | 8 µg/mL (≈ 19.1 µM) | – | – |
| CNc1cc(F)cc2c1[nH]c1nc(Oc3cnc4cccnc4c3)nc(N3CC4C[C@@H](N)C[C@H]4C3)c12 (some centres unmarked) [4.046] | ≤ 0.5 µg/mL | 1 µg/mL (≈ 2.06 µM) | – | – |
| CNc1cc(F)cc2c1[nH]c1nc(Oc3cncnc3)nc(N3CC4CNC(C4)C3)c12 (centres unmarked) [4.015] | ≤ 0.5 µg/mL | 1 µg/mL (≈ 2.38 µM) | – | – |
| CNc1ncc(Oc2nc(N3CCC(N)C3)c3c(n2)[nH]c2c(NC)cc(F)cc23)cn1 (centres unmarked) [4.219] | – | – | ≤0.5 µg/mL | ≤0.5 µg/mL |
| CNc1cccc2c1[nH]c1nc(Sc3cnc4cccnc4c3)nc(N3CC4C(N)C4C3)c12 (centres unmarked) [1.24] | – | – | ≤0.5 µg/mL | 1 µg/mL (≈ 2.2 µM) |
| CNc1cc(F)cc2c1[nH]c1nc(Oc3cnc(C)nc3)nc(N3CC(N)C(F)C3)c12 (centres unmarked) [4.137] | – | – | ≤0.5 µg/mL | 1 µg/mL (≈ 2.35 µM) |
| CNc1cc(F)cc2c1[nH]c1nc(Oc3cnc(C(C)(C)N)nc3)nc(N3C[C@H]4CC3C[C@H]4N)c12 [4.442] | 1 µg/mL (≈ 2.09 µM) | 2 µg/mL (≈ 4.19 µM) | – | – |
| CNc1cccc2c1[nH]c1nc(Sc3cncnc3)nc(N3CC(N)C4(CC4)C3)c12 (centres unmarked) [1.44] | 1 µg/mL (≈ 2.39 µM) | 2 µg/mL (≈ 4.78 µM) | – | – |
| CNc1cc(F)cc2c1[nH]c1nc(Oc3cnc(C)nc3)nc(N3CC(NC(=O)CNC(=O)C(N)CO)C4(CC4)C3)c12 (centres unmarked) [4.127] | – | – | 8 µg/mL (≈ 13.8 µM) | >16 µg/mL |
| CNc1cc(F)cc2c1[nH]c1nc(Oc3cnc(C(C)C)nc3)nc(N3C[C@H](N)C4(CC4)C3)c12 [4.233] | ≤ 0.5 µg/mL | 1 µg/mL (≈ 2.16 µM) | – | – |
| CNc1cccc2c1[nH]c1nc(Oc3cncc(F)c3)nc(N3C[C@@H](N)C4(CC4)C3)c12 [3.51] | 8 µg/mL (≈ 19.1 µM) | 32 µg/mL (≈ 76.3 µM) | – | – |
| CNc1cccc2c1[nH]c1nc(Sc3cnc4ccc[n+]([O-])c4c3)nc(N3C[C@@H]4[C@@H](CN)[C@@H]4C3)c12 [1.18] | ≤ 0.5 µg/mL | 2 µg/mL (≈ 4.13 µM) | – | – |
